We go through 12 molecules from ChEMBL document CHEMBL1201862, “PubChem BioAssay data set” (2004).

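Method: 48-hour compound exposure of cells in 96-well plates, five concentrations, linear interpolation of endpoints. GI50 marks 50% less growth.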 Calls of active or inactive are those of the source. Rule as the data show it: active = GI50 up to about 1.1 µM and inactive = higher. Where only a bound is given, the exact number is not on record here.

Common to all, as to experiment: inhibition of tumour cell growth, NCI panel, 48 h
Assay [1] relates to A498.
Assay [2] relates to UACC-257.
Assay [3] concerns MOLT-4.
The subject of assay [4] is HCT-116.
The subject of assay [5] is NCI-H460.
For assay [6], the system named is NCI-H226.
The subject of assay [7] is SNB-19.
Assay [8] concerns MDA-MB-231.
Assay [9] has as its system HOP-92.
The subject of assay [10] is TK-10.
The subject of assay [11] is Hs-578T.
Assay [12] relates to HOP-62.
Assay [13] deals with CCRF-CEM.
The test system of assay [14] is UACC-62.
Assay [15] has as its system M14.
Assay [16] concerns SK-MEL-2.
The test system of assay [17] is SK-MEL-28.
The test system of assay [18] is Malme-3M.
Assay [19] relates to SR.

As to `Nc1nc(N)c2cc(Sc3ccc4ccccc4c3)ccc2n1`, the GI50 in [1] is 11.5 µM (inactive); in assay [2] it was 1.58 µM (inactive); in [3], 2.8 µM (inactive); in assay [4], 1.17 µM (inactive); in assay [5], 0.682 µM (active); in [6], 10.7 µM (inactive). The GI50 in [7] is 3.48 µM (inactive); in [8], 2.54 µM (inactive); in assay [9], 1.14 µM (inactive); in assay [10] it was 3.1 µM (inactive); in assay [11], 11.9 µM (inactive); in assay [12], 3.56 µM (inactive). Moreover, the GI50 in assay [13] was 0.705 µM (active); in assay [14], 0.568 µM (active); in assay [15], 1.23 µM (inactive).
Turning to `Cc1cccc(N2C(=O)C3c4[nH]c5ccccc5c4C4CCC(C(C)(C)C)CC4C3C2=O)c1` (configuration not stated), the GI50 is 13.1 µM (inactive) in [1]; 18.7 µM (inactive) in assay [2]; 8.83 µM (inactive) in assay [3]; 9.29 µM (inactive) in [4]; 6.19 µM (inactive) in [5]; 18.7 µM (inactive) in assay [6]. In addition, the GI50 in assay [16] was 18.2 µM (inactive); in assay [17], 16.3 µM (inactive); in assay [18], 13 µM (inactive); in [7], 13.2 µM (inactive); in assay [8], 9.53 µM (inactive); in assay [10], 14.2 µM (inactive). Besides, the GI50 in [11] is 9.98 µM (inactive); in [12], 3.54 µM (inactive); in assay [13] it was 8.57 µM (inactive); in [14], 19.5 µM (inactive); in assay [15] it was 13.3 µM (inactive).
As for `CCOC(=O)c1cn(-c2ccc(Cl)cc2)c(=O)n2c1nc1ccccc12`, the GI50 in assay [1], in assay [2], in [3], in [4], in assay [5] and in [6] was > 100 µM (inactive) each time. In addition, the GI50 in [19], in [16], in assay [17], in assay [7], in [8] and in assay [9] was > 100 µM (inactive) each time. The GI50 in assay [12], in assay [13], in assay [14] and in [15] was > 100 µM (inactive) in each case.
With `CSc1ccc(C=C2N=C(c3ccccc3)N(c3cc(C(=O)c4ccccc4)ccc3N3C(=O)/C(=C/c4ccc(SC)cc4)N=C3c3ccccc3)C2=O)cc1`, the GI50 in [1] was 71.8 µM (inactive); in [2], 89.9 µM (inactive); in assay [3], 23.7 µM (inactive); in assay [4], 59.3 µM (inactive); in assay [5], 51.2 µM (inactive); in assay [16], 36.1 µM (inactive). In addition, the GI50 was > 100 µM (inactive) in [17]; > 100 µM (inactive) in [7]; 80.5 µM (inactive) in assay [8]; 80.7 µM (inactive) in assay [9]; 51.1 µM (inactive) in assay [10]; 52.7 µM (inactive) in assay [11]. Also, the GI50 in [12] was 79.8 µM (inactive); in assay [13], 5.69 µM (inactive); in assay [14], 44.9 µM (inactive); in assay [15] it was 76.9 µM (inactive).
As for `Oc1ccc(Br)cc1/C=N/C1CCCCC1`, the GI50 was > 100 µM (inactive) in assay [1]; 47.2 µM (inactive) in assay [2]; 18.8 µM (inactive) in assay [3]; 12.4 µM (inactive) in [4]; 71.4 µM (inactive) in assay [5]; 25.1 µM (inactive) in assay [16]. Besides, the GI50 was 43.3 µM (inactive) in assay [17]; 27.6 µM (inactive) in [18]; 53 µM (inactive) in [7]; 36.3 µM (inactive) in assay [8]; 72.1 µM (inactive) in assay [9]; > 100 µM (inactive) in assay [10]. Besides, the GI50 was 37.7 µM (inactive) in [11]; 45.4 µM (inactive) in assay [12]; 5.37 µM (inactive) in assay [13]; 32 µM (inactive) in assay [14]; 34.8 µM (inactive) in assay [15].
For `C/C(=N\NC(=O)CC#N)C(CN1CCCCC1)C(c1ccccc1)c1c(O)c2ccccc2oc1=O` (configuration not stated), the GI50 in [1] is 21.7 µM (inactive); in [2] it was 37.2 µM (inactive); in assay [3], 26.5 µM (inactive); in assay [4] it was 62.2 µM (inactive); in assay [6], 52.1 µM (inactive); in assay [16], 35.7 µM (inactive). Also, the GI50 in assay [17] was > 100 µM (inactive); in assay [18] it was 41 µM (inactive); in [7], 80.4 µM (inactive); in assay [8] it was 35.5 µM (inactive); in assay [9] it was 18.5 µM (inactive); in assay [10], 91.8 µM (inactive). Moreover, the GI50 in [11] was 50.6 µM (inactive); in [13] it was 26.2 µM (inactive); in [14], 45.4 µM (inactive); in assay [15] it was 68.5 µM (inactive).
For the molecule `CCOC(=O)CC[C@H](NC(=O)c1nc[nH]c1[N+](=O)[O-])C(=O)OCC`, the GI50 in [1], in [2], in assay [3], in assay [4], in assay [5] and in [6] was > 100 µM (inactive) each time. In addition, the GI50 was 35.7 µM (inactive) in [19]; > 100 µM (inactive) in [16]; > 100 µM (inactive) in assay [17]; > 100 µM (inactive) in [18]; > 100 µM (inactive) in assay [7]; > 100 µM (inactive) in assay [9]. In addition, the GI50 in assay [10], in assay [12], in [13], in [14] and in [15] was > 100 µM (inactive) throughout.
In the case of `O=C1c2ccccc2C(=O)C1C(c1ccc([N+](=O)[O-])cc1)C1C(=O)c2ccccc2C1=O`, the GI50 in assay [2] was 33.7 µM (inactive); in [3], 36.9 µM (inactive); in assay [4], 24.3 µM (inactive); in assay [5] it was > 100 µM (inactive); in assay [6] it was 59.7 µM (inactive); in assay [19] it was 28.2 µM (inactive). The GI50 in assay [16] was 91 µM (inactive); in assay [17], 29 µM (inactive); in assay [18] it was > 100 µM (inactive); in [7], > 100 µM (inactive); in [9] it was 36.2 µM (inactive); in assay [10], > 100 µM (inactive). The GI50 is 34.8 µM (inactive) in assay [12], 32.4 µM (inactive) in assay [13], 32.6 µM (inactive) in assay [14] and 55.7 µM (inactive) in assay [15].
For the molecule `O=C(/C(=N/Nc1cn[nH]c(=O)c1Cl)c1ccccc1)c1ccccc1`, the GI50 in assay [1] is 14.7 µM (inactive); in [2] it was 29.2 µM (inactive); in [3] it was 23.2 µM (inactive); in assay [4], 23.1 µM (inactive); in assay [6], 25.3 µM (inactive); in assay [16] it was 46 µM (inactive). Moreover, the GI50 was 45.1 µM (inactive) in assay [17]; 52.7 µM (inactive) in [18]; 91.6 µM (inactive) in assay [7]; 24.7 µM (inactive) in [8]; 24.8 µM (inactive) in [9]; 24.9 µM (inactive) in [10]. Besides, the GI50 in [12] was 44.8 µM (inactive); in [13], 32.4 µM (inactive); in assay [14], 16 µM (inactive); in assay [15], 46.8 µM (inactive).
With `COC(=O)C1=CC(=O)OC1(OO)c1ccccc1` (configuration not stated), the GI50 was > 100 µM (inactive) in assay [2]; 62.2 µM (inactive) in [3]; 88.3 µM (inactive) in [4]; > 100 µM (inactive) in [5]; > 100 µM (inactive) in assay [6]; 42.1 µM (inactive) in assay [19]. For the same molecule, the GI50 in [16] was > 100 µM (inactive); in assay [17], > 100 µM (inactive); in assay [18], 28.3 µM (inactive); in [7], > 100 µM (inactive); in assay [8], > 100 µM (inactive); in [9], 30.8 µM (inactive). The GI50 is > 100 µM (inactive) in assay [10], 18.7 µM (inactive) in assay [13], > 100 µM (inactive) in assay [14] and > 100 µM (inactive) in assay [15].
Take `COC(=O)c1ccccc1/C=C1\Cc2c(ccc3c2CCC3)C1=O`: the GI50 in [1], in [2], in assay [3], in assay [4], in [5] and in [6] was > 100 µM (inactive) in each case. Besides, the GI50 is > 100 µM (inactive) in [19]; 56 µM (inactive) in [16]; > 100 µM (inactive) in assay [17]; > 100 µM (inactive) in assay [18]; > 100 µM (inactive) in assay [7]; 85.9 µM (inactive) in assay [9]. Besides, the GI50 was > 100 µM (inactive) in assay [10]; > 100 µM (inactive) in [11]; 80.5 µM (inactive) in assay [12]; > 100 µM (inactive) in assay [13]; > 100 µM (inactive) in [14]; > 100 µM (inactive) in assay [15].
Regarding `c1ccc2c(c1)C(=Nc1ccc(N=C3c4ccccc4-c4ccccc43)cc1)c1ccccc1-2`, the GI50 in assay [1], in assay [2], in [3], in assay [4], in assay [5] and in assay [6] was > 100 µM (inactive) in each case. Further, the GI50 in assay [16], in assay [18], in assay [7], in assay [8], in assay [9] and in [10] was > 100 µM (inactive) throughout. The GI50 in assay [11], in [12], in assay [13], in assay [14] and in assay [15] was > 100 µM (inactive) in each case.
